According to ChEMBL document CHEMBL1817626, “The structure-activity relationship of urea derivatives as anti-tuberculosis agents” (Bioorg Med Chem, 2011):
Converted amounts (≈) assume the structure as drawn. The source made the active and inactive calls. No cut-off for these calls is given here.

Key:
Enterococcus faecium = experiment: Antibacterial activity against Enterococcus faecium; assay type: functional
Staphylococcus aureus = experiment: Antibacterial activity against Staphylococcus aureus; assay type: functional
[1] = biological target: T1, Hydrolase, alpha/beta hydrolase fold family (Mycobacterium tuberculosis) (UniProt O69638); experiment: Inhibition of Mycobacterium tuberculosis recombinant EphE expressed in Escherichia coli BL21 using CMNPC as substrate at 10 nM after 30 mins by fluorescent assay relative to control
T1 sequence (whole entry): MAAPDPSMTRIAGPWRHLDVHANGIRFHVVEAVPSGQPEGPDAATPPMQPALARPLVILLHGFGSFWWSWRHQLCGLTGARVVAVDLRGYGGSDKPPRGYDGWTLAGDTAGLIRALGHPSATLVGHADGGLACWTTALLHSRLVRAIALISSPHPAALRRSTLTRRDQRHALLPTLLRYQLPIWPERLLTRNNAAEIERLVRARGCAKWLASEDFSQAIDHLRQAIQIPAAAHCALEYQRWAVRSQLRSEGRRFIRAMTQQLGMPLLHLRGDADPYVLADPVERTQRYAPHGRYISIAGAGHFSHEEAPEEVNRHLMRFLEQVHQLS

Escherichia coli [2] = experiment: Antibacterial activity against Escherichia coli K12; assay type: functional; settings: K-12
Klebsiella pneumoniae = experiment: Antibacterial activity against Klebsiella pneumoniae; assay type: functional
[3] = biological target: T2, Bifunctional epoxide hydrolase 2 (Homo sapiens, UniProt P34913); experiment: Inhibition of human recombinant soluble epoxide hydrolase using CMNPC as substrate after 10 mins by fluorescent assay
T2 sequence (P34913 whole entry): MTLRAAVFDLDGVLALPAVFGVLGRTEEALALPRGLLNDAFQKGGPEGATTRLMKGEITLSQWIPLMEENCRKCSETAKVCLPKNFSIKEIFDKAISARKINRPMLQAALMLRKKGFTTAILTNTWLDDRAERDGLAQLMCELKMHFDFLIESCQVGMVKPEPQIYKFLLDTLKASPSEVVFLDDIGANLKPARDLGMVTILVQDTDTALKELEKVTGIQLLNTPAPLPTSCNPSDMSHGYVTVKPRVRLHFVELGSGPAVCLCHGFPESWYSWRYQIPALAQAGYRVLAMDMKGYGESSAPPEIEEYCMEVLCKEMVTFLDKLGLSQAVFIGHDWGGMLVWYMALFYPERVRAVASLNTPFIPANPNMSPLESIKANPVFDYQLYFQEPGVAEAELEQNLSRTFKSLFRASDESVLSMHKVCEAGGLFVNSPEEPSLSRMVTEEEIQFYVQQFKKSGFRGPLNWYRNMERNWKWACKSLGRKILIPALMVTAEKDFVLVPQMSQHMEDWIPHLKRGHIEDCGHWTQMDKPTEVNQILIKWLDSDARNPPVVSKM

[4] = system: Mycobacterium tuberculosis; experiment: microbe, parasite or virus in culture; settings: H37Rv, 168 h
Pseudomonas aeruginosa = experiment: Antibacterial activity against Pseudomonas aeruginosa; assay type: functional
Escherichia coli [5] = experiment: Antibacterial activity against Escherichia coli […] TolC; assay type: functional
Bacillus anthracis = experiment: microbe, parasite or virus in culture
Vero = experiment: Cytotoxicity against african green monkey Vero cells after 72 hrs by MTT assay; assay type: cell-based; settings: Chlorocebus sabaeus
[6] = biological target: T3, Epoxide hydrolase B (Mycobacterium tuberculosis) (UniProt P95276); experiment: Inhibition of Mycobacterium tuberculosis recombinant EphB expressed in Escherichia coli BL21 using CMNPC as substrate at 10 nM after 30 mins by fluorescent assay relative to control
T3 sequence (whole entry): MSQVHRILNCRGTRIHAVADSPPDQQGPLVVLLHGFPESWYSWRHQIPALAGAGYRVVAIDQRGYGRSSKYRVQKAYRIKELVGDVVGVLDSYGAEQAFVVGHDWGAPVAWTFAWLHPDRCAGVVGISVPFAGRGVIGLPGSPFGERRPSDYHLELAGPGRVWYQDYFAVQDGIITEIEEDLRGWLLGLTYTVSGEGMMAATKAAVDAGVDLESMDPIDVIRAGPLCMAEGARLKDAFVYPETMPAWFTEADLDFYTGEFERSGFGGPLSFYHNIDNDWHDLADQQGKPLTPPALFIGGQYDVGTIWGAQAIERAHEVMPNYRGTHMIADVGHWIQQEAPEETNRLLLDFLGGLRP

[7] = system: Mycolicibacterium smegmatis; experiment: microbe, parasite or virus in culture; settings: str. MC2 155, 168 h
Enterococcus faecalis = experiment: Antibacterial activity against Enterococcus faecalis; assay type: functional

SMILES | MIC (Enterococcus faecium) [µg/mL] | MIC (Staphylococcus aureus) [µg/mL] | inhibition [1] [%] | MIC (Escherichia coli [2]) [µg/mL] | MIC (Klebsiella pneumoniae) [µg/mL] | IC50 [3] [nM] | MIC [4] [µg/mL] | MIC (Pseudomonas aeruginosa) [µg/mL] | MIC (Escherichia coli [5]) [µg/mL] | MIC (Bacillus anthracis) [µg/mL] | IC50 (Vero) [µg/mL] | inhibition [6] | MIC [7] [µg/mL] | MIC (Enterococcus faecalis) [µg/mL]
O=C(NC1CCCCC1)NC1C2CC3CC(C2)CC1C3 (configuration not stated) | > 200 | > 200 | 70.2 | > 200 | > 200 | 0.4 | 10 (≈ 36.2 µM) | > 200 | > 200 | > 200 | 25 (≈ 90.4 µM) | 11.6% | > 200 | > 200
NNC(=O)c1ccncc1 [ISONIAZID] |  |  |  |  |  |  | 0.01 (≈ 0.0729 µM) |  |  |  |  |  |  | 
CCOCCNC(=O)NC12CC3CC(CC(C3)C1)C2 | > 200 | > 200 | 17.6 | > 200 | > 200 | 525 | 50 (≈ 188 µM) | > 200 | > 200 | > 200 |  | 18.7% | > 200 | > 200
O=C(NCc1ccccc1)NC1C2CC3CC(C2)CC1C3 (configuration not stated) | > 200 | > 200 | 34.1 | > 200 | > 200 | 14.8 | 3.1 (≈ 10.9 µM) | > 200 | > 200 | > 200 | 4.2 (≈ 14.8 µM) | inactive | 100 (≈ 352 µM) | > 200
O=C(Nc1ccccc1)Nc1ccccc1 |  |  |  |  |  | 390 |  |  |  |  |  |  |  | 
O=C(Nc1ccc(F)c(F)c1F)NC12CC3CC(CC(C3)C1)C2 | > 200 |  | 92.2 | > 200 | > 200 |  |  | > 200 | > 200 | > 200 | 726 (≈ 2240 µM) | 89.7% | > 200 | > 200
O=C(Nc1cccc(C(F)(F)F)c1F)NC1CCCCCCC1 | > 200 | > 200 | 56.3 | > 200 | > 200 | 0.4 | 0.8 (≈ 2.41 µM) | > 200 | 25 (≈ 75.2 µM) | 3.12 (≈ 9.39 µM) | 25.3 (≈ 76.1 µM) | 17% | 0.4 (≈ 1.2 µM) | > 200
COc1ccc(NC(=O)NC2C3CC4CC(C3)CC2C4)cc1 (configuration not stated) | > 200 | > 200 | 83.1 |  | > 200 | 14.3 | 0.4 (≈ 1.33 µM) | > 200 |  | > 200 | 13.4 (≈ 44.6 µM) | 95.1% | 100 (≈ 333 µM) | > 200
O=C(Nc1ccc(F)c(F)c1F)OC1C2CC3CC(C2)CC1C3 (configuration not stated) | > 200 | > 200 | 21.4 | > 200 | > 200 | 464 | 6 (≈ 18.4 µM) | > 200 | 12.5 (≈ 38.4 µM) | > 200 |  | 10.2% | 50 (≈ 154 µM) | > 200
O=C(Nc1ccc(F)c(F)c1F)NC1CCCC1 | > 200 | > 200 | 36 | > 200 | > 200 | 56.2 | 50 (≈ 194 µM) | > 200 | > 200 | > 200 |  | 86.4% | 200 (≈ 774 µM) | > 200
CC(C)CCOc1ccc(NC(=O)Nc2ccc(OCCC(C)C)cc2)cc1 | > 200 | > 200 | 88.8 | > 200 | > 200 | 6.5 | 200 (≈ 520 µM) | > 200 | 3.12 (≈ 8.11 µM) | > 200 |  | 14.6% | > 200 | > 200
CCCCCCCNC(=O)Nc1ccc(F)c(F)c1F | > 200 |  | 92.8 | > 200 | > 200 | 0.4 | 6 (≈ 20.8 µM) | > 200 | 6.25 (≈ 21.7 µM) | > 200 | 130 (≈ 450 µM) | 87.5% | > 200 | > 200
CC[C@@H](CO)NCCN[C@@H](CC)CO [ETHAMBUTOL] |  |  |  |  |  |  | 0.01 (≈ 0.0489 µM) |  |  |  |  |  |  | 
CN(C(=O)N(C)C1C2CC3CC(C2)CC1C3)c1ccc(F)c(F)c1F (configuration not stated) | > 200 | > 200 | 25.2 | > 200 | > 200 | 1840 | 12 (≈ 34.1 µM) | > 200 | 12.5 (≈ 35.5 µM) | > 200 |  | < 1% | 200 (≈ 568 µM) | > 200
O=C(Nc1ccc(F)c(F)c1F)NC1CCCCCCC1 | > 200 |  | 91.6 | > 200 | > 200 | 0.4 |  | > 200 | 3.12 (≈ 10.4 µM) | > 200 | 63.4 (≈ 211 µM) | 95.7% | 0.8 (≈ 2.66 µM) | > 200
CCCCCCCNC(=O)Nc1cccc(C(F)(F)F)c1F | > 200 | > 200 | 46.8 | > 200 | > 200 | 0.4 | 3 (≈ 9.37 µM) | > 200 | > 200 | > 200 |  | 5.5% | 100 (≈ 312 µM) | > 200
Fc1ccc(NC(=S)NC2C3CC4CC(C3)CC2C4)c(F)c1F (configuration not stated) | > 200 | > 200 | 35.5 | > 200 | > 200 | 4.8 | 0.8 (≈ 2.35 µM) | > 200 | 3.12 (≈ 9.17 µM) | 3.12 (≈ 9.17 µM) |  | 21.3% |  | > 200
N#Cc1ccc(NC(=O)NC2C3CC4CC(C3)CC2C4)cc1 (configuration not stated) | > 200 | > 200 | 72.7 |  | > 200 | 1.1 | 0.4 (≈ 1.35 µM) | > 200 |  | 12.5 (≈ 42.3 µM) | 7.1 (≈ 24 µM) | 9% | 12.5 (≈ 42.3 µM) | > 200
CN(C(=O)NC1C2CC3CC(C2)CC1C3)c1ccc(F)c(F)c1F (configuration not stated) | > 200 | > 200 | 22.8 | > 200 | > 200 | 38.1 | 6 (≈ 17.7 µM) | > 200 | 25 (≈ 73.9 µM) | > 200 |  | 6.7% |  | > 200
CC1(C)C2CCC(CNC(=O)Nc3ccc(F)c(F)c3F)C1C2 (configuration not stated) | > 200 | 3.13 (≈ 9.59 µM) | 103 | > 200 | > 200 | 0.4 | 0.2 (≈ 0.613 µM) | > 200 |  | 1.6 (≈ 4.9 µM) | 15.5 (≈ 47.5 µM) | 38.6% | 1.6 (≈ 4.9 µM) | > 200
O=C(Nc1ccc(F)c(F)c1F)NC1CCCCC1 | > 200 | > 200 | 65.6 | > 200 | > 200 | 1.2 |  | > 200 | > 200 | > 200 | 15.9 (≈ 58.4 µM) | 96.4% | 12.5 (≈ 45.9 µM) | > 200
O=C(Nc1ccc(F)c(F)c1F)NC1C2CC3CC(C2)CC1C3 (configuration not stated) | > 200 | > 200 | 71.4 | > 200 | > 200 |  |  | > 200 | > 200 | > 200 |  |  |  | > 200
